The text below walks through data of article PMC11740726 (PNAS Nexus, 2025).

Values joined by “and” are separate entries in the source; they are usually repeats but may differ in a detail not shown here. Equal entries are not always repeated. Where two headings read alike, the source gives them in different places.

The subject of one test is rgSARS-CoV-2^WT. As to the kind of experiment: microbe, parasite or virus in culture. It is filed as cell-based. The note with it: Severe acute respiratory syndrome coronavirus 2, Vero C1008, read-out: EC50, rgSARS-CoV-2^WT, VeroE6 +2μM CP-100356.
A further test deals with rgSARS-CoV-2^E166V. The format is cell-based, SARS-CoV-2. The note with it: read-out: EC50, rgSARS-CoV-2^E166V, VeroE6 +2μM CP-100356.
Test [1] deals with six various Omicron variants (BA.5, BA.2.75, BQ.1.1, XBB, XBB.1.5, and EG.5.1). As to the kind of experiment: microbe, parasite or virus in culture. It is filed as cell-based, SARS-CoV-2. The note with it: Severe acute respiratory syndrome coronavirus 2, read-out: EC50 values ranging over all six Omicron variants.
Test [2] has as its system SARS-CoV-2 Omicron BA.2.75. The test is described as follows: microbe, parasite or virus in culture. The note with it: Severe acute respiratory syndrome coronavirus 2, read-out: Against SARS-CoV-2 variants EC50, Omicron BA.2.75. The format is cell-based.
Test [3] deals with SARS-CoV-2 Omicron XBB.1.5. As to the kind of experiment: microbe, parasite or virus in culture. The format is cell-based. The note with it: Severe acute respiratory syndrome coronavirus 2, read-out: Against SARS-CoV-2 variants EC50, Omicron XBB.1.5.
In test [4] the test system is SARS-CoV-2 Omicron EG.5.1. As to the kind of experiment: microbe, parasite or virus in culture. It is filed as cell-based. The note with it: Severe acute respiratory syndrome coronavirus 2, read-out: Against SARS-CoV-2 variants EC50, Omicron EG.5.1.
A further test deals with SARS-CoV-2^BQ.1.1. The test is described as follows: microbe, parasite or virus in culture. The format is cell-based. The note with it: Severe acute respiratory syndrome coronavirus 2, read-out: Against SARS-CoV-2 variants EC50, Omicron BQ.1.1.
Test [5] deals with SARS-CoV-2^E166V-P14. It is filed as cell-based. The note with it: read-out: EC50, SARS-CoV-2^E166V-P14, HeLa^hACE2-TMPRSS2.
The test system of another test is SARS-CoV-2 Omicron BA.5. The test is described as follows: microbe, parasite or virus in culture. It is filed as cell-based. The note with it: Severe acute respiratory syndrome coronavirus 2, read-out: Against SARS-CoV-2 variants EC50, Omicron BA.5.
Another test deals with SARS-CoV-2 Omicron XBB. As to the kind of experiment: microbe, parasite or virus in culture. It is filed as cell-based. The note with it: Severe acute respiratory syndrome coronavirus 2, read-out: Against SARS-CoV-2 variants EC50, Omicron XBB.
Test [6] deals with SARS-CoV-2^E166V-P14. It is filed as cell-based. The note with it: read-out: EC50, SARS-CoV-2^E166V-P14, VeroE6 +2μM CP-100356.

On to `CC(C)(C)[C@H](NC(=O)C(F)(F)F)C(=O)N1C[C@H]2[C@@H]([C@H]1C(=O)N[C@@H](C[C@@H]1CCNC1=O)C(=O)c1nc3cc(F)ccc3s1)C2(C)C` [TKB272], for which the EC50 (in general, the concentration at which the effect is half-maximal) in the test on rgSARS-CoV-2^WT is 3 nM; with rgSARS-CoV-2^E166V, 22 nM; in test [1] it was 3 to 8 nM; in test [2], 6 ± 3 nM; in [3], 5 ± 2 nM; in test [4], 7 ± 1 nM. For the same molecule, the EC50 in the test with SARS-CoV-2^BQ.1.1 is 3 ± 1 nM; with SARS-CoV-2^E166V-P14 [5] it was 51.3 nM and 51 nM; in the test on SARS-CoV-2 Omicron BA.5 it was 8 ± 1 nM; with SARS-CoV-2 Omicron XBB, 3 ± 1 nM.
With `CC(C)(C)[C@H](NC(=O)C(F)(F)F)C(=O)N1C[C@H]2[C@@H]([C@H]1C(=O)N[C@H](C#N)C[C@@H]1CCNC1=O)C2(C)C` [Nirmatrelvir, reference compound], the EC50 was 26 ± 5 nM in the test with rgSARS-CoV-2^WT; 1300 nM with rgSARS-CoV-2^E166V; 20 to 750 nM in test [1]; 300 ± 220 nM in test [2]; 210 ± 280 nM in test [3]; 130 ± 20 nM in [4]. Also, the EC50 was determined as 50 ± 20 nM in the test on SARS-CoV-2^BQ.1.1, 1420 nM in the test on SARS-CoV-2^E166V-P14 [5] and 750 ± 220 nM in the test on SARS-CoV-2 Omicron BA.5.
As to `CC(C)C(=O)OC[C@H]1O[C@@H](n2ccc(NO)nc2=O)[C@H](O)[C@@H]1O` [molnupiravir, reference compound], in the test on SARS-CoV-2^E166V-P14 [6], the EC50 was 750 nM.
Regarding `Cn1cnc(Cn2c(=O)[nH]/c(=N\c3cc4cn(C)nc4cc3Cl)n(Cc3cc(F)c(F)cc3F)c2=O)n1` [Ensitrelvir, reference compound], the concentration giving a half-maximal response (EC50) is 60 to 220 nM in [1]; 540 nM with SARS-CoV-2^E166V-P14 [6]; 140 ± 60 nM in test [2]; 220 ± 90 nM in test [3]; 210 ± 90 nM in [4]; 70 ± 20 nM with SARS-CoV-2^BQ.1.1. Also, the EC50 came to 200 ± 40 nM with SARS-CoV-2 Omicron BA.5 and 60 ± 20 nM in the test with SARS-CoV-2 Omicron XBB.
On to `CC(C)(C)[C@H](NC(=O)C(F)(F)F)C(=O)N1C[C@H]2[C@@H]([C@H]1C(=O)N[C@@H](C[C@@H]1CCNC1=O)C(=O)c1nc3c(F)cccc3s1)C2(C)C` [TKB245], for which the EC50 in [1] is 6 to 38 nM; in test [2], 27 ± 3 nM; in [3], 35 ± 18 nM; in test [4], 9 ± 1 nM; in the test with SARS-CoV-2 Omicron BA.5, 23 ± 9 nM; in the test on SARS-CoV-2 Omicron XBB it was 6 ± 3 nM.
